Measured values as given in US20240002376A1, “COMPOSITIONS AND METHODS FOR G-PROTEIN-COUPLED RECEPTOR 44 DETECTION” (City of Hope, priority 2020, published 2024).
“Also recorded” adds a separate entry of the source.

Legend:
Type in all cases: in vivo
[1] = Biodistribution of 18F GPR44 radioligand in healthy NOD/SCID mice
Description: Bio-distribution analysis over time of a unique ^18F GPR44 radioligand in healthy NOD/SCID mice. The biodistribution of [^18F] Ab-1 was investigated in health NOD/SCID mice. The mice were administered doses of the radiotracer i.v. through the tail vein under general anesthesia. At 30, 60, and 90 minutes post-injection, mice were euthanized. The blood, lung, heart, liver, spleen, stomach, small and large intestines, muscle, kidney, pancreas and bone were collected, weighed, and radioactivity counted. […] We also injected cold unlabeled Ab-1, as a blocking agent, and collected the organs at 30 minutes post-injection. Organ uptake varied little from results obtained in mice given the radiotracer.

GPR44+1.1B4 cells = test: Biodistribution in NOD/SCID mice implanted with human beta-like 1.1B4 cells
Description: (§1) Preliminary studies confirmed that the human beta-like 1.1B4 cells express GPR44. However, it was not clear if the radiotracer would localize to these cells in living animals. We performed a biodistribution study in NOD/SCID mice post 3 weeks following implantation of 1.1B4 cells. The blocking agent was cold Ab-1. At 30 minutes post-injection, the mice with/without blocking agent were euthanized and organs were collected. […] For mice with transplanted study, 500 IEQ human islets were transplanted into NOD/SCID mice kidney capsule. We also performed the biodistribution study in the mice with human islets (FIG. 9). […] Ab-1. Further, [^18F]

human islets = test: Biodistribution in NOD/SCID mice with human islets transplanted into kidney capsule; settings: 500 IEQ human islets in kidney capsule
Description: as §1

## CN(C1CCc2c(c3ccccc3n2CC(=O)O)C1)S(=O)(=O)c1ccc([18F])cc1 (centres unmarked) [[^18F] Ab-1]
[1]; blocking with cold Ab-1
  specific binding in murine tissues: no specific binding
[1]; i.v. tail vein, 30, 60 and 90 minutes post-injection
  uptake in the murine pancreas: minimal uptake
[1]; i.v. tail vein, 30, 60 and 90 minutes post-injection, radioactivity counted
  uptake in the liver: Prominent uptake
[1]; i.v. tail vein, 30, 60 and 90 minutes post-injection, relative to liver
  uptake in the kidneys: much less so
[1]; organs collected 30 minutes post-injection
  organ uptake with cold unlabeled Ab-1 as blocking agent versus radiotracer alone: varied little
GPR44+1.1B4 cells; 30 minutes post-injection
  effect of blocking agent cold Ab-1 on uptake in 1.1B4 cells: decreased by cold Ab-1
  uptake in other organs before or after administration of cold Ab-1: not different
GPR44+1.1B4 cells; 30 minutes post-injection, 3 weeks after implantation
  uptake in implanted 1.1B4 cells: highest uptake; also recorded: accumulated
GPR44+1.1B4 cells; in vivo, blocking with cold Ab-1
  binding to GPR44+1.1B4 cells: specifically binds
Human islets
  specific binding to human islets: high specific binding
  uptake in human islets: significant uptake; also recorded: accumulated
